Test results as given in patent publication US5587475A, “Derivatized virginiamycin M1” (University of Notre Dame, priority 1995, dated 1996).

Assays:
ribosomes = test: in vitro activity: binding to free ribosomes, VS1 fluorescence with erythromycin displacement; design: key to kobs (symbol): (*) too small to be measured. t/2 is very large; details: together with VS1, fluorescence
Experimental: The in vivo tests were carried out using Micrococcus luteus as the test organism with the VM1 derivatives alone (without VS1). Minimum inhibitory concentrations (MIC values) were determined on agar broth plates by standard microbiological procedures, with a range of concentrations of the VM derivatives applied to the plates. The in vitro tests of the VM derivatives were performed together with VS1, and took advantage of the unique fluorescence (F) inherent in VS1. […] Using spectrofluorometry, an increase in fluorescence can be measured when ribosomes are added to a VS1 solution. Erythromycin is known to bind at the same position on the ribosome (50-S subunit) as VS1, and when it is added to the VS1 /ribosomal mixture, a decrease in fluorescence is seen. If VM1 is added to the VS1 /ribosomal/erythromycin mixture, an increase in fluorescence can be measured. Presumably, a conformational change of the ribosomes occurs upon binding of VM1, which allows VS1 to bind preferentially and releases erythromycin from the ribosomes. The VM1 derivatives would also display this type of behavior if they bind to the ribosomes.

Micrococcus luteus = test: in vivo activity, M.I.C. on M. luteus (VM1 derivatives alone, without VS1); type: cell-based; design: key: (+) indicates multiplication of bacteria; details: M. luteus in LBroth, 18 h at 37° C. with shaking
Experimental: The synthesized derivatives of the present invention have been tested for antibacterial activity (in solid and liquid medium), ribosome binding affinity and synergistic activity with virginiamycin S. The tests for biological activity were carried out both in vivo and in vitro. The in vivo tests were carried out using Micrococcus luteus as the test organism with the VM1 derivatives alone (without VS1). Minimum inhibitory concentrations (MIC values) were determined on agar broth plates by standard microbiological procedures, with a range of concentrations of the VM derivatives applied to the plates. The in vitro tests of the VM derivatives were performed together with VS1, and took advantage of the unique fluorescence (F) inherent in VS1. The results are summarized in the following tables, wherein the activities are compared to virginiamycin (VM1). | M. luteus in LBroth, 18 h at 37° C. with shaking. | M. luteus in LBroth, 18 h at 37° C. with shaking.

[1] = in vitro Activity of VM1-Carboxylic Acid Derivatives
[2] = in vitro Activity of VM1-Ester Derivatives

| SMILES | kobs (ribosomes; [1]) | t/2 (ribosomes; [1]) | in vivo Acitivity of VM1-Carboxylic Derivatives, M.I.C. on M. luteus (multiplication of bacteria) (Micrococcus luteus; Concentration 0.0625 μg/mL) | in vivo Acitivity of VM1-Carboxylic Derivatives, M.I.C. on M. luteus (multiplication of bacteria) (Micrococcus luteus; Concentration 0.125 μg/mL) | in vivo Acitivity of VM1-Carboxylic Derivatives, M.I.C. on M. luteus (multiplication of bacteria) (Micrococcus luteus; Concentration 0.25 μg/mL) | in vivo Acitivity of VM1-Carboxylic Derivatives, M.I.C. on M. luteus (multiplication of bacteria) (Micrococcus luteus; Concentration 0.5 μg/mL) | in vivo Acitivity of VM1-Carboxylic Derivatives, M.I.C. on M. luteus (multiplication of bacteria) (Micrococcus luteus; Concentration 1 μg/mL) | in vivo Acitivity of VM1-Carboxylic Derivatives, M.I.C. on M. luteus (multiplication of bacteria) (Micrococcus luteus; Concentration 2 μg/mL) | in vivo Acitivity of VM1-Carboxylic Derivatives, M.I.C. on M. luteus (multiplication of bacteria) (Micrococcus luteus; Concentration 4 μg/mL) | in vivo Acitivity of VM1-Carboxylic Derivatives, M.I.C. on M. luteus (multiplication of bacteria) (Micrococcus luteus; Concentration 8 μg/mL) | in vivo Acitivity of VM1-Carboxylic Derivatives, M.I.C. on M. luteus (multiplication of bacteria) (Micrococcus luteus; Concentration 16 μg/mL) | kobs (ribosomes; [2]) | t/2 (ribosomes; [2]) | in vivo Activity of VM1-Ester Derivatives, M.I.C. on M. luteus (multiplication of bacteria) (Micrococcus luteus; Concentration 0.0625 μg/mL) | in vivo Activity of VM1-Ester Derivatives, M.I.C. on M. luteus (multiplication of bacteria) (Micrococcus luteus; Concentration 0.125 μg/mL) | in vivo Activity of VM1-Ester Derivatives, M.I.C. on M. luteus (multiplication of bacteria) (Micrococcus luteus; Concentration 0.25 μg/mL) | in vivo Activity of VM1-Ester Derivatives, M.I.C. on M. luteus (multiplication of bacteria) (Micrococcus luteus; Concentration 0.5 μg/mL) | also measured |
| --- | --- | --- | --- | --- | --- | --- | --- | --- | --- | --- | --- | --- | --- | --- | --- | --- | --- | --- |
| CC1=C\[C@@H](O)CC(=O)Cc2nc(co2)C(=O)N2CC[C@@H](SCC(=O)O)[C@@H]2C(=O)O[C@H](C(C)C)[C@H](C)/C=C/C(=O)NC\C=C\1 [Carboxylic a R,S] | .00047 s⁻¹ | 1487 s | + | + | + | + | + | + | + | + | + | – | – | – | – | – | – | – |
| CC1=C\[C@@H](O)CC(=O)Cc2nc(co2)C(=O)N2CC[C@H](SCC(=O)O)[C@H]2C(=O)O[C@H](C(C)C)[C@H](C)/C=C/C(=O)NC\C=C\1 [Carboxylic a S,R] | – | – | + | + | + | + | + | + | + | + | + | – | – | – | – | – | – | kobs (symbol) (ribosomes; [1]): *; in vivo Acitivity of VM1-Carboxylic Derivatives, M.I.C. on M. luteus (multiplication of bacteria) (Micrococcus luteus; Concentration 32 μg/mL): +; in vivo Acitivity of VM1-Carboxylic Derivatives, M.I.C. on M. luteus (multiplication of bacteria) (Micrococcus luteus; Concentration 128 μg/mL): + |
| CC1=C\[C@@H](O)CC(=O)Cc2nc(co2)C(=O)N2CC[C@@H](SCCC(=O)O)[C@@H]2C(=O)O[C@H](C(C)C)[C@H](C)/C=C/C(=O)NC\C=C\1 [Carboxylic b R,S] | 0.003 s⁻¹ | 229 s | + | + | + | + | + | + | + | + | + | – | – | – | – | – | – | in vivo Acitivity of VM1-Carboxylic Derivatives, M.I.C. on M. luteus (multiplication of bacteria) (Micrococcus luteus; Concentration 32 μg/mL): + |
| CC1=C\[C@@H](O)CC(=O)Cc2nc(co2)C(=O)N2CC[C@H](SCCC(=O)O)[C@H]2C(=O)O[C@H](C(C)C)[C@H](C)/C=C/C(=O)NC\C=C\1 [Carboxylic b S,R] | – | – | + | + | + | + | + | + | + | + | + | – | – | – | – | – | – | kobs (symbol) (ribosomes; [1]): *; in vivo Acitivity of VM1-Carboxylic Derivatives, M.I.C. on M. luteus (multiplication of bacteria) (Micrococcus luteus; Concentration 32 μg/mL): +; in vivo Acitivity of VM1-Carboxylic Derivatives, M.I.C. on M. luteus (multiplication of bacteria) (Micrococcus luteus; Concentration 128 μg/mL): + |
| CC1=C\[C@@H](O)CC(=O)Cc2nc(co2)C(=O)N2CC[C@@H](SCCCCC(=O)O)[C@@H]2C(=O)O[C@H](C(C)C)[C@H](C)/C=C/C(=O)NC\C=C\1 [Carboxylic c R,S] | 0.019 s⁻¹ | 38.7 s | + | + | + | – | – | – | – | – | – | – | – | – | – | – | – | – |
| CC1=C\[C@@H](O)CC(=O)Cc2nc(co2)C(=O)N2CC[C@H](SCCCCC(=O)O)[C@H]2C(=O)O[C@H](C(C)C)[C@H](C)/C=C/C(=O)NC\C=C\1 [Carboxylic c S,R] | 0.015 s⁻¹ | 46 s | + | + | + | – | – | – | – | – | – | – | – | – | – | – | – | – |
| CC1=C\[C@@H](O)CC(=O)Cc2nc(co2)C(=O)N2CC[C@@H](SCC(=O)OCC(Cl)(Cl)Cl)[C@@H]2C(=O)O[C@H](C(C)C)[C@H](C)/C=C/C(=O)NC\C=C\1 [Ester a R,S] | – | – | – | – | – | – | – | – | – | – | – | 0.019 s⁻¹ | 35.6 s | + | + | + | – | – |
| CC1=C\[C@@H](O)CC(=O)Cc2nc(co2)C(=O)N2CC[C@H](SCC(=O)OCC(Cl)(Cl)Cl)[C@H]2C(=O)O[C@H](C(C)C)[C@H](C)/C=C/C(=O)NC\C=C\1 [Ester a S,R] | – | – | – | – | – | – | – | – | – | – | – | – | – | + | + | + | + | kobs (symbol) (ribosomes; [2]): *; in vivo Activity of VM1-Ester Derivatives, M.I.C. on M. luteus (multiplication of bacteria) (Micrococcus luteus; Concentration 1 μg/mL): +; in vivo Activity of VM1-Ester Derivatives, M.I.C. on M. luteus (multiplication of bacteria) (Micrococcus luteus; Concentration 2 μg/mL): +; in vivo Activity of VM1-Ester Derivatives, M.I.C. on M. luteus (multiplication of bacteria) (Micrococcus luteus; Concentration 4 μg/mL): +; in vivo Activity of VM1-Ester Derivatives, M.I.C. on M. luteus (multiplication of bacteria) (Micrococcus luteus; Concentration 8 μg/mL): +; in vivo Activity of VM1-Ester Derivatives, M.I.C. on M. luteus (multiplication of bacteria) (Micrococcus luteus; Concentration 16 μg/mL): + |
| CC1=C\[C@@H](O)CC(=O)Cc2nc(co2)C(=O)N2CC[C@@H](SCCC(=O)OCC(Cl)(Cl)Cl)[C@@H]2C(=O)O[C@H](C(C)C)[C@H](C)/C=C/C(=O)NC\C=C\1 [Ester b R,S] | – | – | – | – | – | – | – | – | – | – | – | 0.021 s⁻¹ | 32.7 s | + | + | + | + | – |
| CC1=C\[C@@H](O)CC(=O)Cc2nc(co2)C(=O)N2CC[C@H](SCCC(=O)OCC(Cl)(Cl)Cl)[C@H]2C(=O)O[C@H](C(C)C)[C@H](C)/C=C/C(=O)NC\C=C\1 [Ester b S,R] | – | – | – | – | – | – | – | – | – | – | – | 0.0009 s⁻¹ | 721 s | + | + | + | + | in vivo Activity of VM1-Ester Derivatives, M.I.C. on M. luteus (multiplication of bacteria) (Micrococcus luteus; Concentration 1 μg/mL): +; in vivo Activity of VM1-Ester Derivatives, M.I.C. on M. luteus (multiplication of bacteria) (Micrococcus luteus; Concentration 2 μg/mL): +; in vivo Activity of VM1-Ester Derivatives, M.I.C. on M. luteus (multiplication of bacteria) (Micrococcus luteus; Concentration 4 μg/mL): +; in vivo Activity of VM1-Ester Derivatives, M.I.C. on M. luteus (multiplication of bacteria) (Micrococcus luteus; Concentration 8 μg/mL): + |
| CC1=C\[C@@H](O)CC(=O)Cc2nc(co2)C(=O)N2CC[C@@H](SCCCCC(=O)OCC(Cl)(Cl)Cl)[C@@H]2C(=O)O[C@H](C(C)C)[C@H](C)/C=C/C(=O)NC\C=C\1 [Ester c R,S] | – | – | – | – | – | – | – | – | – | – | – | 0.020 s⁻¹ | 34.1 s | + | + | + | + | in vivo Activity of VM1-Ester Derivatives, M.I.C. on M. luteus (multiplication of bacteria) (Micrococcus luteus; Concentration 1 μg/mL): +; in vivo Activity of VM1-Ester Derivatives, M.I.C. on M. luteus (multiplication of bacteria) (Micrococcus luteus; Concentration 2 μg/mL): +; in vivo Activity of VM1-Ester Derivatives, M.I.C. on M. luteus (multiplication of bacteria) (Micrococcus luteus; Concentration 4 μg/mL): + |
